# Assay results taken from patent publication US4299838A, “Tryptophan derivatives having an increased effect on the central nervous system” (priority 1974, dated 1981).
# Legend:
# [1] = Solubility and hygroscopicity; format: physicochemical
# [2] = system: mice; assay: Acute toxicity (LD 50) in the mouse; format: in vivo; conditions: for LD50: intraperitoneal, mice; for LD-50: oral, mouse
# [3] = Acute toxicity (LD 50) in the mouse; format: in vivo; conditions: mouse, in vivo, po
# Description: (§1) The oral LD-50 is 16.50 g/kg for DL and 18.25 g/kg for L(+).
# [4] = Pharmacological study, overall comparison; format: in vivo; conditions: for pharmacological properties: in vivo
# [5] = system: depression; assay: Clinical tests in depression; format: in vivo; conditions: human
# Description: (§2) The importance of the compounds according to the invention was confirmed by clinical tests.
# [6] = system: gastric ulcers; assay: Anti-ulcer effect, stress-ulcer method of Rossi et Coll.; format: in vivo, mouse; conditions: for DE-50 as fraction of the LD-50 / ED50: stress-ulcer method; for ED50: mouse, read-out: DE-50 (anti-ulcer dose 50)
# Method: (§3) Mg acetyl tryptophanate dissolved in twice-distilled water was administered 48 hours before, 24 hours before and at the moment when the mouse was put under constraint, or 24 hours before and 1 hour before the ligature of the pylorus.
# (§4) The DE-50 (anti-ulcer dose 50) of orally-administered Mg acetyl tryptophanate, measured by the stress-ulcer method, was 1700 mg/kg. The DE-50 of intraperitoneally administered Mg acetyl tryptophanate was 230 mg/kg, measured by the stress-ulcer method (i.e. one-tenth of the LD-50) compared with 16 mg/kg (33/100 of the LD-50) for prifinium bromide; measured by the Shay method, the DE-50 was 340 mg/kg (14/100 of the LD-50) for Mg acetyl tryptophanate, compared with 25 mg/kg (52/100 of the LD-50) for prifinium bromide under the same conditions.
# [7] = system: reserpine ptosis; assay: Reserpine anti-ptosis effect; format: in vivo, mouse
# Method: (d) A reserpine anti-ptosis effect. Increasing doses of the test product were subcutaneously administered to male mice, 30 minutes before intraperitoneal injection of reserpine. The ptosis was measured every half-hour for 5 hours by the method of Rubin et Coll. (observation of the occlusion of the lids of each eye). The percentage protection against ptosis was calculated, compared with controls. Lithium acetyl tryptothanate reduced ptosis produced by reserpine, to an extent which increased up to a dose of 800 mg/kg (45% reduction).
# [8] = system: gastric ulcers; assay: Anti-ulcer effect, Shay method (ligature of the pylorus); format: in vivo, mouse; conditions: for ED50: mouse, read-out: DE-50 (anti-ulcer dose 50)
# Method: as §3, §4
# [9] = Acute toxicity (LD-50) in the rat; conditions: in vivo
# Description: as §1
# [10] = system: pentobarbitone sleeping time; assay: Pentobarbitone sleeping time; format: in vivo; conditions: mouse, 35 mg/kg pentobarbitone 5 minutes before sub-cutaneous product
# [11] = system: manic-depressive psychoses; assay: Clinical tests in manic-depressive psychoses; format: in vivo, human
# Method: as §2
# Lithium N-acetyl tryptophanate was used to treat manic-depressive psychoses.
# A person was treated for a manic-depressive psychosis for 6 years. Relapses normally occurred in spring. They were not prevented either by tricyclic drugs or by IMAO substances. Treatment with lithium carbonate produced oligo-menorrhoea, although the patient normally had regular periods.
# [12] = Acute toxicity (LD 50) in the mouse; format: in vivo; conditions: mouse, in vivo, ip, intraperitoneal, mice
# [13] = system: amphetamine hyperactivity; assay: Potentiation of amphetamine hyperactivity (actography); format: in vivo, mouse
# Description: (f) Potentiation of amphetamine hyperactivity.
# [14] = system: mice; assay: Acute toxicity (LD 50) in the mouse; format: in vivo
# Description: as §1
# [15] = system: exploratory activity; assay: Exploratory activity in the perforated board test; format: in vivo, mouse; conditions: mice
# Description: (c) The reduction of exploratory activity in the `perforated board` test (Boissiet and Simon-Arch-Int. Pharmacodyn. 1964, 147, 3-4).
# [16] = system: analgesia produced by morphine; assay: Heating plate test (analgesia produced by morphine); format: in vivo
# [17] = system: hyperactivity due to the association of amphetamine and chlorodiazepoxide; assay: Inhibition of hyperactivity due to the association of amphetamine and chlorodiazepoxide (actography); format: in vivo, mouse; conditions: 500 and 1000 mg/kg i.p., 1 hour and 3 hours before (+) amphetamine sulphate (5 mg/kg) and chlorodiazepoxide (25 or 50 mg/kg)
# Method: (b) Inhibition of hyperactivity due to the association of amphetamine and chlorodiazepoxide;
# Simultaneous intraperitoneal administration of (+) amphetamine sulphate (5 mg/kg) and chlorodiazepoxide (25 or 50 mg/kg) to mice produced hyperactivity which was measured by the actography method, wherein the mice are placed in pairs in three suspended cages and their movements are recorded.
# [18] = system: rat; assay: Hypothermic effect on the rat (rectal temperature); format: in vivo; conditions: 1 g/kg intraperitoneal
# Description: (a) A hypothermic effect on the rat.
structure (smiles),measurement,setting,value
"CC(=O)N[C@@H](Cc1c[nH]c2ccccc12)C(=O)O [Magnesium N-acetyl tryptophanate L(+), L(+) magnesium N-acetyl tryptophanate]",solubility in water,[1],very soluble
same,LD50,[2],2300 mg/kg
same,LD50,[3],18200 mg/kg
"CC(=O)NC(Cc1c[nH]c2ccccc12)C(=O)O (stereo not drawn) [Magnesium N-acetyl tryptophanate, magnesium N-acetyl tryptophanate]",action compared with lithium acetyl tryptophanate,[4]; measured by the same tests,slower but more prolonged
same,"effect on sleep, sthenic action and headaches",[5],"producing normal sleep, accompanied by a daily sthenic action and the control of refractory headaches"
same,use in the treatment of depression,[5],of use in the treatment of depression
same,anti-ulcer effect compared with prifinium bromide,[6]; both ulcer methods,slightly lower anti-ulcer effect than prifinium bromide
same,safety in therapy compared with prifinium bromide,[6]; both ulcer methods,safer in therapy
same,DE-50 as fraction of the LD-50,[6]; intraperitoneal,one-tenth
same,ED50,"[6]; ip, intraperitoneal",230 mg/kg
same,ED50,[6]; oral,1700 mg/kg
same,reserpine anti-ptosis effect in words,"[7]; mouse, in vivo",only a very slight reserpine anti-ptosis effect
same,DE-50 as fraction of the LD-50,[8],14/100
same,ED50,[8],340 mg/kg
same,LD50,"[9]; ip, intraperitoneal",1350 mg/kg
same,LD50,[9]; oral,> 8000 mg/kg
same,average sleeping time,[10],increased the average sleeping time to an extent proportional to the dose
"O=C(O)O [Lithium carbonate, lithium carbonate]",lithaemia,[11]; observation No. 1,≤ 1 meq
same,side effect on menstruation,[11]; observation No. 1,oligo-menorrhoea
same,side effects during treatment,[11]; observation No. 1,nausea and attacks of vomiting
"CC(=O)NC(Cc1c[nH]c2ccccc12)C(=O)O (racemic) [Magnesium N-acetyl tryptophanate (DL), magnesium N-acetyl tryptophanate (DL)]",hygroscopicity,[1],very hygroscopic
same,LD50,[2],2800 mg/kg
same,LD50,[3],16500 mg/kg
"CC[N+]1(CC)CCC(=C(c2ccccc2)c2ccccc2)C1C (stereo not drawn) [Prifinium bromide, prifinium bromide, reference compound]",DE-50 as fraction of the LD-50,[6]; intraperitoneal,33/100
same,ED50,"[6]; ip, intraperitoneal",16 mg/kg
same,DE-50 as fraction of the LD-50,[8],52/100
same,ED50,[8],25 mg/kg
"CC(=O)NC(Cc1c[nH]c2ccccc12)C(=O)O (racemic) [Morpholine N-acetyl tryptophanate, morpholine N-acetyl tryptophanate]",solubility in chlorinated solvents,[1]; chlorinated solvents,slightly soluble
same,solubility in water,[1],very soluble
same,pharmacological properties,[4],very similar to those of magnesium N-acetyl tryptophanate
same,"effect on sleep, sthenic action and headaches",[5],"producing normal sleep, accompanied by a daily sthenic action and the control of refractory headaches"
same,use in the treatment of depression,[5],of use in the treatment of depression
same,LD-50,[2],16000 mg/kg
"CC(=O)NC(Cc1c[nH]c2ccccc12)C(=O)O (racemic) [Lithium N-acetyl tryptophanate (DL), Li N-acetyl tryptophan (DL)]",solubility in water,[1],very soluble
same,LD50,[12],3400 mg/kg
same,LD50,[3],8700 mg/kg
"C[C@H](N)Cc1ccccc1 [Dexamphetamine sulphate, dexamphetamine sulphate, reference compound]","excitation, dexamphetamine sulphate alone","[13]; 5 mg/kg intraperitoneal, mouse",did not produce very marked excitation
"CC(=O)N[C@@H](Cc1c[nH]c2ccccc12)C(=O)O [Lithium N-acetyl tryptophanate L(+), Lithium N-acetyl tryptophanate in the L(+) form]",solubility in chlorinated and aromatic solvents,[1]; chlorinated and aromatic solvents,very slightly soluble
same,solubility in ethyl alcohol,[1]; ethyl alcohol,soluble
same,solubility in water,[1],soluble
same,LD50,[12],3250 mg/kg
same,LD50,[3],10500 mg/kg
"CC(=O)NC(Cc1c[nH]c2ccccc12)C(=O)O (stereo not drawn) [Lithium N-acetyl tryptophanate, lithium N-acetyl tryptophanate]",tolerance by patients,"[11]; human, in vivo",tolerated by the patients better than lithium carbonate
same,prevention of relapses,[11]; manic-depressive psychoses,appeared to prevent relapses into cyclothymia
same,toxicity in words,"[14]; mouse, in vivo",only slightly toxic
same,oral toxicity in words,[14]; oral,low
same,reduction of ptosis produced by reserpine,"[7]; 800 mg/kg subcutaneous, 30 minutes before i.p. reserpine, male mice",45%
same,excitation with 5 mg/kg dexamphetamine sulphate plus product (actography),"[13]; 500 mg/kg with 5 mg/kg i.p. dexamphetamine sulphate, mice",to a considerably greater extent than with dexamphetamine sulphate alone
same,mobility,[15]; 1000 mg/kg intraperitoneal,very marked increase in mobility
same,exploratory activity,[15]; 1500 mg/kg intraperitoneal,significant reduction in exploratory activity
same,effect on analgesia produced by morphine,[16],did not affect analgesia produced by morphine
same,reduction in hyperactivity,[17],very marked reduction in hyperactivity
same,duration of progressive reduction of rectal temperature after injection,[18],110 min
same,temperature of the rectum,[18],progressively reduces the temperature of the rectum
"CC(=O)NC(Cc1c[nH]c2ccccc12)C(=O)O (racemic) [Monoethanolamine N-acetyl tryptophanate, monoethanolamine N-acetyl tryptophanate (DL)]",solubility in chlorine and hydrocarbon derivatives,[1]; chlorine and hydrocarbon derivatives,insoluble
same,solubility in water,[1],fairly soluble
same,pharmacological properties,[4],very similar to those of magnesium N-acetyl tryptophanate
same,"effect on sleep, sthenic action and headaches",[5],"producing normal sleep, accompanied by a daily sthenic action and the control of refractory headaches"
same,use in the treatment of depression,[5],of use in the treatment of depression
same,LD-50,[2],above 18 g/kg
